In PubChem BioAssay AID624043 (The Scripps Research Institute Molecular Screening Center, 2012):
The source made the active and inactive calls.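 How the source made its calls: active means compounds whose EC50, the dose giving half of full IDE activation, is 100 µM or lower; inactive means EC50 above 100 µM or not measured.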

target: Insulin-degrading enzyme (Homo sapiens) (UniProt P14735); assay: WT IDE enzyme activation, cell-free – biochemical, fluorescence polarization, run by assay provider, counter-screen for IDE activator project, late-stage follow-up (AID 624043); settings: recombinant IDE, FAbetaB cleavage
Sequence (P14735 whole entry, looked up): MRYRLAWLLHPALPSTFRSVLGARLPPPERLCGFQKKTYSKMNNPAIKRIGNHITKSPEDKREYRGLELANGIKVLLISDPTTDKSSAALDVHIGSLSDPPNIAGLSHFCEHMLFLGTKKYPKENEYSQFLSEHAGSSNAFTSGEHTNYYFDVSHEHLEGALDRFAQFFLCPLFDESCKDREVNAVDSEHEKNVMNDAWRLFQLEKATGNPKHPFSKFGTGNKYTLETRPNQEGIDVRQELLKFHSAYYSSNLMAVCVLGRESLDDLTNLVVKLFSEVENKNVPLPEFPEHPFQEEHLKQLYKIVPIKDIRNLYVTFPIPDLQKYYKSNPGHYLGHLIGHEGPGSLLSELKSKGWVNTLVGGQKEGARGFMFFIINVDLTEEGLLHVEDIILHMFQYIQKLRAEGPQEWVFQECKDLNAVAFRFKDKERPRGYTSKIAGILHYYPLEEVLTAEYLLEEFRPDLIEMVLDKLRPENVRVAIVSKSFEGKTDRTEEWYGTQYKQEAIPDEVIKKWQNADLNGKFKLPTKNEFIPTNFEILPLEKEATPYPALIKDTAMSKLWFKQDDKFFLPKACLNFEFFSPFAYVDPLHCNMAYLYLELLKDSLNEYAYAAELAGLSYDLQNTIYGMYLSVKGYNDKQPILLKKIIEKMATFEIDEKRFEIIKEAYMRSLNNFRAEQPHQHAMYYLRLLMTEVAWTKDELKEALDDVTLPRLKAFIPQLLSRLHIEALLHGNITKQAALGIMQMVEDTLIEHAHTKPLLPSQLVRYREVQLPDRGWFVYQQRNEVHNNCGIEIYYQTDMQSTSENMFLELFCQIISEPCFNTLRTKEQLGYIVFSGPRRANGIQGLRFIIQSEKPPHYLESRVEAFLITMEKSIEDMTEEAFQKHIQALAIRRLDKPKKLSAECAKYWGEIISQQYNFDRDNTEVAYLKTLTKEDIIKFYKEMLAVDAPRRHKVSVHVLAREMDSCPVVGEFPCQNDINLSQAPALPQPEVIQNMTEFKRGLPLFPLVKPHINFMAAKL

Compound	EC50
CCC(c1nnnn1CCC(C)C)N1CCN(c2ccccc2)CC1 (stereo not drawn)	> 15 µM (inactive)
CC(C)CCn1nnnc1CN1CCN(c2ccccc2F)CC1	> 15 µM (inactive)
CC(C)CCn1nnnc1C(C(C)C)N1CCN(c2ccccc2)CC1 (stereo not drawn)	> 15 µM (inactive)
